Measured values taken from patent US9650395B2, “Antibacterial compounds and methods for use” (PTC Therapeutics, Inc., priority 2011, dated 2017).
Values after ≈ are worked out from the molar mass of the structure shown. Where two headings read alike, the source gives them in different places.

Legend:
[1] = tested on: super sensitive Gram-negative Escherichia coli (E. coli) BAS849; assay: Antibacterial activity, microbroth dilution MIC, E. coli BAS849; assay type: cell-based; conditions: Escherichia coli, read-out: MIC, BAS849
[2] = tested on: control Gram-negative E. coli 25922 strain; assay: Antibacterial activity, microbroth dilution MIC, E. coli 25922; assay type: cell-based, Escherichia coli; conditions: Escherichia coli; E. coli 25922, microbroth dilution; read-out: MIC, 25922
[3] = tested on: Gram-positive Staphylococcus aureus (S. aureus) 29213; assay: Antibacterial activity, microbroth dilution MIC, S. aureus 29213; assay type: cell-based; conditions: Staphylococcus aureus; S. aureus 29213, microbroth dilution; read-out: MIC, 29213
[4] = tested on: quinolone resistant E. coli LZ3111; assay: Antibacterial activity, MIC, quinolone resistant E. coli LZ3111; assay type: cell-based, Escherichia coli; conditions: Escherichia coli, read-out: MIC, LZ3111
Text: (§1) The antibacterial activity from a microbroth dilution method may be presented as the minimum inhibitory concentration (MIC in […]). The MIC value is the lowest concentration of a drug which prevents macroscopically visible bacterial growth under test conditions.
Mutations in these regions are known to confer a high level resistance to the quinolone class of antibiotics.

[5] = tested on: E. coli ELZ4000 (MDR clinical isolate); assay: Antibacterial activity, MIC, MDR E. coli ELZ4000; assay type: cell-based, Escherichia coli; conditions: Escherichia coli; E. coli ELZ4000, MDR clinical isolate; read-out: MIC ELZ4000
[6] = tested on: E. coli ELZ4251 (MDR clinical isolate); assay: Antibacterial activity, MIC, MDR E. coli ELZ4251; assay type: cell-based, Escherichia coli; conditions: Escherichia coli, E. coli ELZ4251, MDR clinical isolate; read-out: MIC ELZ4251
[7] = tested on: Pseudomonas aeruginosa (P. aeruginosa) 27853; assay: Antibacterial activity, MIC, P. aeruginosa 27853; assay type: cell-based; conditions: Pseudomonas aeruginosa, P. aeruginosa 27853; read-out: MIC 27853
Text: as §1
Antibacterial activity of test compounds against the Gram-negative bacterium Pseudomonas aeruginosa (P. aeruginosa) 27853 is shown in Table 5.

[8] = E. coli BAS849, microbroth dilution

Row | Compound | MIC [1] [µg/mL] | MIC [2] [µg/mL] | MIC [3] [µg/mL] | MIC [4] [µg/mL] | MIC [5] [µg/mL] | MIC [6] [µg/mL] | MIC [7] [µg/mL] | MIC [1, 8] [µg/mL]
1 | CCc1cc(C(=O)O)c(=O)[nH]c1-c1ccc(N2CCC(CN(C)Cc3ccccc3)C2)cc1.O=C(O)C(F)(F)F (stereo not shown) [Cpd 183, 6-[4-(3-{[benzyl(methyl)amino]methyl}pyrrolidin-1-yl)phenyl]-5-ethyl-2-oxo-1,2-dihydropyridine-3-carboxylic acid trifluoroacetate] | < 1 | 3.5 to 12.5 | 12.5 to 150 | 12.5 to 150 | 12.5 to 150 | 12.5 to 150 |  | 
2 | CCc1cc(C(=O)O)c(=O)[nH]c1-c1ccc(N2C[C@H]3CC[C@@H](N)[C@H]3C2)cc1.O=C(O)C(F)(F)F [Cpd 202, 6-{4-[(3aR,4R,6aS)-4-aminohexahydrocyclopenta[c]pyrrol-2(1H)-yl]phenyl}-5-ethyl-2-oxo-1,2-dihydropyridine-3-carboxylic acid trifluoroacetate] | 1 to 3.5 | 12.5 to 150 | 12.5 to 150 | 12.5 to 150 | 12.5 to 150 | 12.5 to 150 | 12.5 to 150 | 
3 | CCc1cc(C(=O)O)c(=O)[nH]c1-c1ccc(N2C[C@H]3CCC[C@H](N)[C@H]3C2)cc1.O=C(O)C(F)(F)F [Cpd 203, 6-{4-[(3aR,4S,7aS)-4-aminooctahydro-2H-isoindol-2-yl]phenyl}-5-ethyl-2-oxo-1,2-dihydropyridine-3-carboxylic acid trifluoroacetate] | 1 to 3.5 | 12.5 to 150 | 12.5 to 150 | 12.5 to 150 | 12.5 to 150 | 12.5 to 150 | 12.5 to 150 | 
4 | CCc1cc(C(=O)O)c(=O)[nH]c1-c1ccc(N2C[C@H]3CN(Cc4ccccc4)C[C@H]3C2)cc1.Cl [Cpd 206, 6-{4-[(3aR,6aS)-5-benzylhexahydropyrrolo[3,4-c]pyrrol-2(1H)-yl]phenyl}-5-ethyl-2-oxo-1,2-dihydropyridine-3-carboxylic acid hydrochloride] |  | 3.5 to 12.5 | 12.5 to 150 | 12.5 to 150 | 12.5 to 150 | 12.5 to 150 |  | 1 to 3.5
5 | CCc1cc(C(=O)O)c(=O)[nH]c1-c1ccc(N2C[C@H]3CN(C)C[C@H]3C2)cc1.Cl [Cpd 208, 5-ethyl-6-{4-[(3aR,6aS)-5-methylhexahydropyrrolo[3,4-c]pyrrol-2(1H)-yl]phenyl}-2-oxo-1,2-dihydropyridine-3-carboxylic acid hydrochloride] |  | 3.5 to 12.5 | 12.5 to 150 | 12.5 to 150 | 12.5 to 150 | 12.5 to 150 |  | 1 to 3.5
6 | CCc1cc(C(=O)O)c(=O)[nH]c1-c1ccc(N2C[C@H](CN)[C@@H](C)C2)cc1 [Cpd 216, 6-{4-[(3S,4R)-3-(aminomethyl)-4-methylpyrrolidin-1-yl]phenyl}-5-ethyl-2-oxo-1,2-dihydropyridine-3-carboxylic acid] |  | 12.5 to 150 (≈ 35.2 to 422 µM) | 12.5 to 150 (≈ 35.2 to 422 µM) | 12.5 to 150 (≈ 35.2 to 422 µM) | 12.5 to 150 (≈ 35.2 to 422 µM) | 12.5 to 150 (≈ 35.2 to 422 µM) | 12.5 to 150 (≈ 35.2 to 422 µM) | 12.5 to 150 (≈ 35.2 to 422 µM)
7 | CCc1cc(C(=O)O)c(=O)[nH]c1-c1ccc(N2C[C@H]3CCC[C@H](N=[N+]=[N-])[C@H]3C2)cc1.O=C(O)C(F)(F)F [Cpd 244, 6-{4-[(3aR,4S,7aS)-4-azidooctahydro-2H-isoindol-2-yl]phenyl}-5-ethyl-2-oxo-1,2-dihydropyridine-3-carboxylic acid trifluoroacetate] | < 1 | 12.5 to 150 | 1 to 3.5 | 12.5 to 150 | 12.5 to 150 | 12.5 to 150 | 12.5 to 150 | 
8 | CCc1c(-c2ccc(N3CC(N)C4(CC4)C3)cc2)[nH]c(=O)c(C(=O)O)c1O.O=C(O)C(F)(F)F (stereo not shown) [Cpd 252, 6-[4-(7-amino-5-azaspiro[2.4]hept-5-yl)phenyl]-5-ethyl-4-hydroxy-2-oxo-1,2-dihydropyridine-3-carboxylic acid trifluoroacetate] | < 1 | 1 to 3.5 | 12.5 to 150 | 3.5 to 12.5 | 12.5 to 150 | 12.5 to 150 | 12.5 to 150 | 
9 | CCc1c(-c2ccc(N3CCC(C)(CN)C3)cc2)[nH]c(=O)c(C(=O)O)c1O (stereo not shown) [Cpd 290, 6-{4-[3-(aminomethyl)-3-methylpyrrolidin-1-yl]phenyl}-5-ethyl-4-hydroxy-2-oxo-1,2-dihydropyridine-3-carboxylic acid] |  | 1 to 3.5 (≈ 2.69 to 9.42 µM) | 12.5 to 150 (≈ 33.7 to 404 µM) | 3.5 to 12.5 (≈ 9.42 to 33.7 µM) | 12.5 to 150 (≈ 33.7 to 404 µM) | 3.5 to 12.5 (≈ 9.42 to 33.7 µM) | 12.5 to 150 (≈ 33.7 to 404 µM) | < 1
10 | CCc1cc(C(=O)O)c(=O)[nH]c1-c1ccc(N2CC=CC2)cc1 [Cpd 301, 6-[4-(2,5-dihydro-1H-pyrrol-1-yl)phenyl]-5-ethyl-2-oxo-1,2-dihydropyridine-3-carboxylic acid] |  | < 1 | < 1 | 12.5 to 150 (≈ 40.3 to 483 µM) | 12.5 to 150 (≈ 40.3 to 483 µM) | 12.5 to 150 (≈ 40.3 to 483 µM) | 3.5 to 12.5 (≈ 11.3 to 40.3 µM) | < 1
